Consider one compound from US11814366B2, “Antiviral compounds and use thereof” (UNIVERSITA DEGLI STUDI DI SIENA, priority 2018, dated 2023).

Data set [1] can be described thus: Cell viability (MTS) assay, Hep-2 cells. It counts as cell-based. The conditions noted are these: human, conditions of the RSV assay. The procedure: (§1) Cell viability was measured using the MITS [3-(4,5-dimethylthiazol-2-yl)-5-(3 carboxy methoxy phenyl)-2-(4-sulfophenyl)-2H-tetrazolium] assay. Cell cultures were seeded in 96-well plates and were incubated with different concentrations of compounds of the invention in triplicate under the same experimental conditions described for the antiviral assays. Cell viability was determined using the CellTiter 96 Proliferation Assay Kit (Promega, Madison, WI, USA) according to the manufacturer's instructions. Absorbances were measured using a Microplate Reader (Model 680, BIORAD) at 490 nm. The effect on cell viability at different concentrations of the compound was expressed as a percentage, by comparing absorbances of treated cells with those of cells incubated with culture medium and equal volumes of vehicle. The 50% cytotoxic concentrations (CC50) and 95% confidence intervals (CIs) were determined using Prism software (Graph-Pad Software, San Diego, CA).

The next data set can be described thus: in vitro. The conditions noted are these: dog.
The nature of data set [2]: Cell viability (MTS) assay, HELF cells. The format is cell-based. The conditions noted are these: human, conditions of the HCMV assay. The procedure:
as §1

Data set [3] can be described thus: Cell viability (MTS) assay, HeLa cells. It counts as cell-based, human. The conditions noted are these: human, HeLa cells; conditions of the HPV-16 assay. On the procedure:
as §1

A further data set has as its system HeLa cells. Nature of the data set: Cell viability (MTS) assay, HeLa cells. It counts as cell-based, human. The conditions noted are these: conditions of the Ad5 assay. On the procedure:
as §1

Data set [4] has as its system HSV-2. The data set can be described thus: During infection assay, HSV-2 on Vero cells without preincubation. It counts as cell-based, Herpes 2 virus (HSV-2). The settings on record: Human alphaherpesvirus 2; HSV-2, Vero cells, no preincubation of compound and virus; read-out: EC50 in during infection (DI) assay. The procedure: During infection cells were subjected to the same experiment described above for the evaluation of HSV inhibition without the preincubation between compounds and virus.

A further data set has as its system HSV-2 Acy R. The data set can be described thus: microbe, parasite or virus in culture. It counts as cell-based, HSV-2 acyclovir resistant. The conditions noted are these: Human alphaherpesvirus 2, Vero.
The subject of data set [5] is HSV-2. Nature of the data set: Entry of virus into cell (ELISA, immunofluorescence). The conditions noted are these: 10 μM, HSV-2, Vero cells. The format is cell-based, Herpes 2 virus (HSV-2). On the procedure:
Cells were plated in 96 well plates. The following day 10 μM of compound 15b in DMSO and HSV-2 (MOI 10 pfu/cell) were incubated for 1 h at 37° C. and subsequently added on cells for 1 hour at 4° C. Cells were then washed and shifted at 37° C. for 1 h and 30 minutes. Cells were then fixed with 4% paraformaldehyde, air dried and permeabilized with PBS-TRITON (0.5%) and then the same protocol described for binding was followed.
Vero cells were pre-plated on coverslips and the following day the binding or entry protocol described above was applied. Cells were then fixed with 4% paraformaldehyde, air dried and for entry protocol permeabilized with PBS-TRITON. Blocking was performed with PBS-BSA1% for 1 h at room temperature and subsequently HSV-2 polyclonal antibody (B011402-2 Dako) (1:250) was added on cells, after 1 hour at 37° C. the inoculum was removed and coverslips were washed with PBS-TWEEN for 3 times. Rhodamine conjugated anti-rabbit IgG (Santa Cruz) was then added on cells for 1 h at 37° C. following 3 washes coverslips were mounted on microscope glasses and observed with Zeiss LSM510 fluorescence microscope (Zeiss, Oberkochen, Germany) and images were acquired (FIG. 3A, 3B).
(In an ELISA, binding on a coated surface is turned into a signal by an enzyme label.)

Data set [6] in a line: Lipoperoxidation test (TBA assay).
Protocol: To evaluate the lipid oxidation capability of 15b, a lipoperoxidation test was carried out.
The effect of 15b was evaluated toward the oxidation of linoleic acid, incorporated in DPPC liposomes, using TBA assay. The assay is based on the reactivity of malondialdehyde (MDA), a colorless end-product of degradation, with 2-thiobarbituric acid (TBA) to produce a pink adduct (TBA-MDA-TBA) that absorbs at 535 nm. […] MDA was detected spectrophotometrically according to methods described in literature (Boon-Huat Bay, Yuan-Kun Lee, Benny Kwong-Huat Tan, Eng-Ang Ling, Lipid peroxidative stress and antioxidative enzymes in brains of milk-supplemented rats, Neuroscience Letters 277 (1999) 127-130).
15b was incubated at 37° C. for 2 h with a 0.5% linoleic acid containing liposome aqueous dispersion (Cagno, V.; Tintori, C.; Civra, A.; Cavalli, R.; Tiberi, M.; Botta, L.; Brai, A.; Poli, G.; Tapparel, C.; Lembo, D.; et al. Novel Broad Spectrum Virucidal Molecules against Enveloped Viruses. 2018). […] The organic supernatant was evaluated by spectrophotometry.
The calibration curve of TBA-MDA-TBA complex was obtained using a MDA precursor 1,1,3,3-tetraethoxypropane. […] The solutions were subjected to TBA assay and analyzed at spectrophotometer. […]
The test system of a further data set is ZIKAV. The data set can be described thus: ZIKA virus plaque reduction assay on Vero cells. The format is cell-based, Zika virus (PRVABC59). (In general: In a plaque reduction assay, fewer plaques than in the control indicate reduced infectivity or spread.)
In the next data set the test system is HSV-1. Nature of the data set: HSV-1 plaque reduction assay on Vero cells. The format is cell-based, Herpes 1 virus (HSV-1). The settings on record: Human alphaherpesvirus 1, Vero.
Data set [7] deals with HSV-2. Nature of the data set: Binding of virus to cell (ELISA, immunofluorescence). The format is cell-based, Herpes 2 virus (HSV-2). The conditions noted are these: 10 μM, HSV-2, Vero cells. On the procedure: Vero Cells were plated in 96 well plates. The following day 10 μM of compound 15b in DMSO and HSV-2 (MOI 10 pfu/cell) were incubated for 1 h at 37° C. and subsequently added on cells for 2 hours at 4° C. Cells were then fixed with 4% paraformaldehyde, air dried, and blocked with 5% bovine serum albumin (BSA) in phosphate-buffered saline (PBS)-Tween. Binding of virus to vero cells was detected using the polyclonal HSV-2 antibody (Dako, Denmark) (diluted 1:250) incubated for 1 h at room temperature, washed three times with PBS-Tween, and incubated for 1 h at 37° C. with anti-rabbit conjugated to horseradish peroxidase (1:500). At the end of incubation, plates were washed three times with PBS-Tween, ABTS[2,2-azinobis(3-ethyl benz thiazoline sulfonic acid)] (A1888 SIGMA ALDRICH) substrate was added for 30 minutes (Thermo Scientific, Rockford, IL), and the absorbance at 405 nm was read.
Vero cells were pre-plated on coverslips and the following day the binding or entry protocol described above was applied. […] Rhodamine conjugated anti-rabbit IgG (Santa Cruz) was then added on cells for 1 h at 37° C. following 3 washes coverslips were mounted on microscope glasses and observed with Zeiss LSM510 fluorescence microscope (Zeiss, Oberkochen, Germany) and images were acquired (FIG. 3A, 3B).

Data set [8] concerns HSV-2. Nature of the data set: Post treatment assay, HSV-2 infected Vero cells. It counts as cell-based, Herpes 2 virus (HSV-2). The settings on record: Human alphaherpesvirus 2, Vero, read-out: antiviral activity value when added post-infection. The procedure: Supernatants and cells were harvested and cell free virus infectivity titers were determined in duplicate by plaque assay in Vero cell monolayers. Percent inhibition was determined by comparing the titer measured in the presence of the compounds to that measured in untreated wells.

A short description of data set [9]: Cell viability (MTS) assay, MA104 cells. The format is cell-based. The conditions noted are these: African green monkey, conditions of the HRoV assay. On the procedure:
as §1

Another data set has as its system RSV. The data set can be described thus: RSV inhibition assay on Hep-2 cells. The format is cell-based, RSV strain A2. The settings on record: human respiratory syncytial virus. On the procedure:
Hep-2 cells were pre-plated in a 96-well plate. The following day concentrations of compounds ranging from 50 μM to 0.0001 μM in DMSO were mixed with RSV (MOI 0.005 pfu/cell) and incubated for 1 hour at 37° C. The mixtures were subsequently added to the cells, which were then incubated at 37° C. for 3 h; monolayers were then washed and overlaid with 1.2% methylcellulose medium. 72 hours later cells were fixed and subjected to specific immunostaining using an RSV monoclonal antibody (Ab35958; Abeam, Cambridge, United Kingdom) in order to visualize syncytia. EC50 were calculated by comparing numbers of syncytia in treated and untreated wells. The effective concentration producing 50% reduction in plaque formation (EC50) was determined using Prism software. The selectivity index (SI) was calculated by dividing the CC50 by the EC50 value.

Data set [10] deals with HSV-2. Nature of the data set: HSV-2 plaque reduction assay on Vero cells. The format is cell-based, Herpes 2 virus (HSV-2).

SMILES strings stand for the structures. Entries after “also recorded” stand apart in the source; their conditions may differ. A value given as a limit tells only on which side of the number the result lay.

The EC90 is the concentration at which the effect reaches the 90% level. On to `O=C1NC(=S)N(CCc2ccccc2)C(=O)/C1=C\c1ccc(-c2ccc(C(=O)O)c(O)c2)[nH]1` [Compound 15b, (Z)-4-(5-((4,6-dioxo-1-phenethyl-2-thioxotetrahydropyrimidin-5(2H)-ylidene)methyl)-1H-pyrrol-2-yl)-2-hydroxybenzoic Acid], for which the CC50 was 241 µM in data set [1]; greater than 300 µM in “in vitro”; 36.3 µM in data set [2]; greater than 300 µM in data set [3]; greater than 300 µM in the data set on HeLa cells; greater than 300 µM in data set [9]. Moreover, the EC50 stood at 7.89 µM in the data set with HSV-2 [4]; 0.0834 µM in the data set with HSV-2 Acy R; 0.0433 µM in the data set with ZIKAV (Zika virus, Vero, ZIKAV infected cells); 0.454 µM with HSV-1; 0.775 µM in the data set on HSV-2 [8]; 0.315 µM with RSV. For the same compound, the EC50 in the data set on HSV-2 [10] (Human alphaherpesvirus 2, Vero, HSV-2 infected cells, compound mixed with virus 1 hour at 37° C.) is 0.0869 µM. The EC90 in the data set on HSV-2 Acy R stood at 0.42 µM; in the data set on HSV-1 it was 3.72 µM; with RSV, 1.51 µM; in the data set with HSV-2 [10] (Human alphaherpesvirus 2, Vero, HSV-2 infected cells, 90% effective concentration), 1.19 µM. Moreover, in the data set on HSV-2 [5], the “percentage of internalized virus” value was “decreased; also recorded: lower”. Further, in data set [6] (37° C. for 2 h, 0.5% linoleic acid containing liposomes, MDA readout), the lipid oxidation capability entry is listed as “able to oxidize polyunsaturated fatty acids”. In addition, in data set [6] (with 0.05% w/w (±)-α-tocopherol as antioxidant), the “oxidation of linoleic acid with tocopherol added” value is given as “reduced the oxidation of linoleic acid”. The SI selectivity index in the data set with ZIKAV (ZIKAV, CC50 divided by EC50) was greater than 2563; in the data set on HSV-2 [10] (HSV-2, CC50 divided by EC50), greater than 3452. For the same compound, the “viral binding / percentage of bound virus” value with HSV-2 [7] was “not impairing viral binding; also recorded: the same”.
